What was measured:
[1] = target: Platelet-derived growth factor receptor beta (Homo sapiens) (UniProt P09619); details: Compound concentration 100.0 nM
[2] = target: T1, Inhibitor of nuclear factor kappa-B kinase subunit beta (Homo sapiens) (UniProt O14920); details: Compound concentration 100.0 nM
T1 sequence (whole entry): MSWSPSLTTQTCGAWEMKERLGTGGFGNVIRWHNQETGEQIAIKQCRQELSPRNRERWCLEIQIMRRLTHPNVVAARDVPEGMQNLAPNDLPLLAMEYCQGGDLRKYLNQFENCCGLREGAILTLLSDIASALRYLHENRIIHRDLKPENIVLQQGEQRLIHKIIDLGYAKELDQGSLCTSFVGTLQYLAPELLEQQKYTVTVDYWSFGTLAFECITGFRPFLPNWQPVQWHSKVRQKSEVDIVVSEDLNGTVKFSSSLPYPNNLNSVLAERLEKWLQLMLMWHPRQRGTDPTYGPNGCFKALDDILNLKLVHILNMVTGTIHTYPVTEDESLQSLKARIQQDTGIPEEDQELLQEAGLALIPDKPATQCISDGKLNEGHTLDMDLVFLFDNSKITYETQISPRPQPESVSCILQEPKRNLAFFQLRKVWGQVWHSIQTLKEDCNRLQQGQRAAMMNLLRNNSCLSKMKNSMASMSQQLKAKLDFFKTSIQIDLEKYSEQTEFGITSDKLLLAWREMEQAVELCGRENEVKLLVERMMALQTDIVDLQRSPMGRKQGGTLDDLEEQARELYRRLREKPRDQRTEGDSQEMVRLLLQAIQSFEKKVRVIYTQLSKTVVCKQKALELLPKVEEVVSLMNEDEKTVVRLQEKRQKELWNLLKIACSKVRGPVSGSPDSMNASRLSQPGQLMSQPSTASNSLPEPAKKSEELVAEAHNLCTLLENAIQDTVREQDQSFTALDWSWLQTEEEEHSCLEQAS

[3] = target: Mitogen-activated protein kinase kinase kinase 2 (Homo sapiens) (UniProt Q9Y2U5); details: Compound concentration 100.0 nM
[4] = target: Mitogen-activated protein kinase 14 (Homo sapiens) (UniProt Q16539); details: Compound concentration 100.0 nM
[5] = target: cAMP-dependent protein kinase catalytic subunit PRKX (Homo sapiens) (UniProt P51817); details: Compound concentration 100.0 nM
[6] = target: Dual specificity mitogen-activated protein kinase kinase 7 (Homo sapiens) (UniProt O14733); details: Compound concentration 100.0 nM
[7] = target: Ephrin type-A receptor 1 (Homo sapiens) (UniProt P21709); details: Compound concentration 100.0 nM
[8] = tested on: Phosphatidylinositol 4,5-bisphosphate 3-kinase catalytic subunit alpha isoform (Homo sapiens), P42336 [Q546K]; details: Compound concentration 100.0 nM
[9] = tested on: ALK tyrosine kinase receptor (Homo sapiens), Q9UM73 [C1156Y]; details: Compound concentration 100.0 nM
[10] = target: Serine/threonine-protein kinase Sgk1 (Homo sapiens) (UniProt O00141); details: Compound concentration 100.0 nM
[11] = target: 5-hydroxytryptamine receptor 2A (Homo sapiens) (UniProt P28223); details: Compound concentration 10.0 uM
[12] = target: Serine/threonine-protein kinase 38 (Homo sapiens) (UniProt Q15208); details: Compound concentration 100.0 nM
[13] = target: Mitogen-activated protein kinase 7 (Homo sapiens) (UniProt Q13164); details: Compound concentration 100.0 nM
[14] = target: Wee1-like protein kinase 2 (Homo sapiens) (UniProt P0C1S8); details: Compound concentration 100.0 nM
[15] = tested on: Epidermal growth factor receptor (Homo sapiens), P00533 [G719C]; details: Compound concentration 100.0 nM
[16] = target: Casein kinase I isoform alpha-like (Homo sapiens) (UniProt Q8N752); details: Compound concentration 100.0 nM
[17] = target: Calcium/calmodulin-dependent protein kinase type II subunit delta (Homo sapiens) (UniProt Q13557); details: Compound concentration 100.0 nM
[18] = tested on: Mast/stem cell growth factor receptor Kit (Homo sapiens), P10721 [A829P]; details: Compound concentration 100.0 nM
[19] = tested on: Epidermal growth factor receptor (Homo sapiens), P00533 [UNDEFINED MUTATION]; details: Compound concentration 100.0 nM
[20] = target: 5'-AMP-activated protein kinase catalytic subunit alpha-2 (Homo sapiens) (UniProt P54646); details: Compound concentration 100.0 nM
[21] = target: Serine/threonine-protein kinase TAO2 (Homo sapiens) (UniProt Q9UL54); details: Compound concentration 100.0 nM
[22] = target: Hepatocyte growth factor receptor (Homo sapiens) (UniProt P08581); details: Compound concentration 100.0 nM
[23] = target: Serine/threonine-protein kinase BRSK2 (Homo sapiens) (UniProt Q8IWQ3); details: Compound concentration 100.0 nM
[24] = target: Mitogen-activated protein kinase kinase kinase kinase 3 (Homo sapiens) (UniProt Q8IVH8); details: Compound concentration 100.0 nM
[25] = target: Serine/threonine-protein kinase VRK2 (Homo sapiens) (UniProt Q86Y07); details: Compound concentration 100.0 nM
[26] = target: Ephrin type-B receptor 4 (Homo sapiens) (UniProt P54760); details: Compound concentration 100.0 nM
[27] = tested on: Mast/stem cell growth factor receptor Kit (Homo sapiens), P10721 [D816V]; details: Compound concentration 100.0 nM
[28] = tested on: Epidermal growth factor receptor (Homo sapiens), P00533 [L858R,T790M]; details: Compound concentration 100.0 nM
[29] = target: Myosin light chain kinase family member 4 (Homo sapiens) (UniProt Q86YV6); details: Compound concentration 100.0 nM
[30] = target: Wee1-like protein kinase (Homo sapiens) (UniProt P30291); details: Compound concentration 100.0 nM
[31] = target: Cyclin-dependent kinase 8 (Homo sapiens) (UniProt P49336); details: Compound concentration 100.0 nM
[32] = target: Muscarinic acetylcholine receptor M4 (Homo sapiens) (UniProt P08173); details: Compound concentration 10.0 uM
[33] = tested on: Receptor-type tyrosine-protein kinase FLT3 (Homo sapiens), P36888 [D835Y]; details: Compound concentration 100.0 nM
[34] = target: Serine/threonine-protein kinase PLK3 (Homo sapiens) (UniProt Q9H4B4); details: Compound concentration 100.0 nM
[35] = target: Mitogen-activated protein kinase 9 (Homo sapiens) (UniProt P45984); details: Compound concentration 100.0 nM

Chain of 5-hydroxytryptamine receptor 2A (Homo sapiens) (P28223 whole entry): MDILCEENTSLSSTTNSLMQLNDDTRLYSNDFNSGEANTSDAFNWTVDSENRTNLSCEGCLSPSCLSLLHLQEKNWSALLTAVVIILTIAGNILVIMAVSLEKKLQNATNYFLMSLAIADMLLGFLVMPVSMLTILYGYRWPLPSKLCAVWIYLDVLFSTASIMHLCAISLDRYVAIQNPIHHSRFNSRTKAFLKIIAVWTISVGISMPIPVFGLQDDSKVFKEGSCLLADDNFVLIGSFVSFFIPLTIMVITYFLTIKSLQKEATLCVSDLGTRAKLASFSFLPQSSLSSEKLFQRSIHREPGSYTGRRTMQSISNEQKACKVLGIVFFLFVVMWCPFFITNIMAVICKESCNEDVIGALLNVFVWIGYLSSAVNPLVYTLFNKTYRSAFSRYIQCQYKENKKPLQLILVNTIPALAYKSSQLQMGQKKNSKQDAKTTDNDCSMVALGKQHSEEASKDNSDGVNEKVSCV
Chain of ALK tyrosine kinase receptor (Homo sapiens), Q9UM73 [C1156Y] (Q9UM73 whole entry C1156Y, looked up): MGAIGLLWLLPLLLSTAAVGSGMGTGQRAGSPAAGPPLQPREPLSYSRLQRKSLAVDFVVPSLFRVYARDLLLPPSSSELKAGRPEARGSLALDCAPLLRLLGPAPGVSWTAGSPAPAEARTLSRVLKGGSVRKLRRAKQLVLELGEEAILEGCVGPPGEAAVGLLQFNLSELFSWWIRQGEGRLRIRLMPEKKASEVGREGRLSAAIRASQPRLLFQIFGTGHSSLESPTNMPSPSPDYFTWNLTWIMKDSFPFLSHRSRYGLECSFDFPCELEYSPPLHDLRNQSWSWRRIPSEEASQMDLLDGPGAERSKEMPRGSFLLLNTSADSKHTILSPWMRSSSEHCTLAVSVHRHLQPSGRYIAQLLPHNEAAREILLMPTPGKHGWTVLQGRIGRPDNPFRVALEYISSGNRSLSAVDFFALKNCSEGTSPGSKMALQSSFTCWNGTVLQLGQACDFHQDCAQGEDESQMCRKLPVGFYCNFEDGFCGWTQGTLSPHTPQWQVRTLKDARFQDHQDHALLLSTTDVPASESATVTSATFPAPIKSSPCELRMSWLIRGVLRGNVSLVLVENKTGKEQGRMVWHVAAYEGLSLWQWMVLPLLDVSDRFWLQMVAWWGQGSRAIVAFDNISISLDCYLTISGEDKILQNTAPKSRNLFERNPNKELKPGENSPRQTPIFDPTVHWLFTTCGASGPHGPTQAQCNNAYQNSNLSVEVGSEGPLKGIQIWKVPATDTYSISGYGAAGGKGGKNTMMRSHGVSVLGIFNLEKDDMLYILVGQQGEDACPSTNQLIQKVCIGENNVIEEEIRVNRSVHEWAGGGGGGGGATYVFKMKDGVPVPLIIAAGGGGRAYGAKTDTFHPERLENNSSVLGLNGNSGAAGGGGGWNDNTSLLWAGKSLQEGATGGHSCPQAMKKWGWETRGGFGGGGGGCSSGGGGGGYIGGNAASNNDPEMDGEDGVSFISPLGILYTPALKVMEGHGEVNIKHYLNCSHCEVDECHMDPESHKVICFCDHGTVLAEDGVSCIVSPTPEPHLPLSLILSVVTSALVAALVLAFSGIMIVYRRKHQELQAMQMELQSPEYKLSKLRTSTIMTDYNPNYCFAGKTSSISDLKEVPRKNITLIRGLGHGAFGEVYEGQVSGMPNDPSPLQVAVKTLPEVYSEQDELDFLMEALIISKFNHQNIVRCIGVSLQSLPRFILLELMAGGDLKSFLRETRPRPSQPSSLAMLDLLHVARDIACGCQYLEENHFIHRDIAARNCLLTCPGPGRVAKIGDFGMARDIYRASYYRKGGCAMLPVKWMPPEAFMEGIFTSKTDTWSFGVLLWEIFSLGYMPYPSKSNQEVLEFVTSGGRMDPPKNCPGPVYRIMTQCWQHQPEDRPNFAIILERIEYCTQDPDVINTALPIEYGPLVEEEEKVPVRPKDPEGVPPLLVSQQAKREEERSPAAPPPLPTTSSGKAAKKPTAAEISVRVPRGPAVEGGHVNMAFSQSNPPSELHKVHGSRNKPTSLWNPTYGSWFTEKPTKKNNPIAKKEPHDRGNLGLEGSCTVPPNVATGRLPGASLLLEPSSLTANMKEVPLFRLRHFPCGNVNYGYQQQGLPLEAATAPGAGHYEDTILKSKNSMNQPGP
Chain of Serine/threonine-protein kinase Sgk1 (Homo sapiens) (O00141 whole entry): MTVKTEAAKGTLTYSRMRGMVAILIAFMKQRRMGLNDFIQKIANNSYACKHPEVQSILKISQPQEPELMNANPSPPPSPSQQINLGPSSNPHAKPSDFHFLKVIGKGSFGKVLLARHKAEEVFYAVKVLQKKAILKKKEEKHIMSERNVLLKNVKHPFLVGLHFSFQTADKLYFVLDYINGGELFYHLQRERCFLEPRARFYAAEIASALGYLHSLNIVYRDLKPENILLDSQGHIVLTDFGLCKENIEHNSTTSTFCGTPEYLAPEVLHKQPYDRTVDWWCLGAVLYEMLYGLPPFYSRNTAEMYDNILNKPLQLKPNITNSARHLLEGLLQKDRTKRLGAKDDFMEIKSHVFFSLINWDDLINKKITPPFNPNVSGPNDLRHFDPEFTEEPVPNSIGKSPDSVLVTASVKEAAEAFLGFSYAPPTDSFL
Chain of Casein kinase I isoform alpha-like (Homo sapiens) (Q8N752 whole entry, canonical isoform): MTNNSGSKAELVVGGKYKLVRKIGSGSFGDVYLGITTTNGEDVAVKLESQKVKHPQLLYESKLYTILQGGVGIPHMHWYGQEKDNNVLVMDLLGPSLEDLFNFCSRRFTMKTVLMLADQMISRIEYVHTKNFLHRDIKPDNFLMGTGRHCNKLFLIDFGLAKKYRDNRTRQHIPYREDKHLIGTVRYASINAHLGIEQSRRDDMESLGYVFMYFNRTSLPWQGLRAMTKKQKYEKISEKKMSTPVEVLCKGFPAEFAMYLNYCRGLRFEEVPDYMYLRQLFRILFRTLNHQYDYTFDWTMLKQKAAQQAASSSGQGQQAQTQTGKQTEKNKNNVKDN
Chain of Wee1-like protein kinase 2 (Homo sapiens) (P0C1S8 whole entry, looked up): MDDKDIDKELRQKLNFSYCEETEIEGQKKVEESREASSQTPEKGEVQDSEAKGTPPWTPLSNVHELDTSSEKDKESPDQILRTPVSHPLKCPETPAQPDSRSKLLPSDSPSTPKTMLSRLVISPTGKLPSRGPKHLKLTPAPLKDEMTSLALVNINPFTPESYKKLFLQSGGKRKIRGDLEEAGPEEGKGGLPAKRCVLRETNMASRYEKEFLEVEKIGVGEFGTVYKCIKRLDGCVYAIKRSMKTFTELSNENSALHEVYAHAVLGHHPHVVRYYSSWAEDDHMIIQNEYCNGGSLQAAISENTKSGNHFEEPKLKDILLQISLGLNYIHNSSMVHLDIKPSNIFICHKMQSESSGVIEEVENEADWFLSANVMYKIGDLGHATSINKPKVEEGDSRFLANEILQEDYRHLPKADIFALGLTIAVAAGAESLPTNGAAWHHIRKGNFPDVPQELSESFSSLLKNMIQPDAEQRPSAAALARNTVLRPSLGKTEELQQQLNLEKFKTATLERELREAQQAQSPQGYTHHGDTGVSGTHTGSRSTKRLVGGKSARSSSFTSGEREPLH
Chain of Mitogen-activated protein kinase kinase kinase 2 (Homo sapiens) (Q9Y2U5 whole entry): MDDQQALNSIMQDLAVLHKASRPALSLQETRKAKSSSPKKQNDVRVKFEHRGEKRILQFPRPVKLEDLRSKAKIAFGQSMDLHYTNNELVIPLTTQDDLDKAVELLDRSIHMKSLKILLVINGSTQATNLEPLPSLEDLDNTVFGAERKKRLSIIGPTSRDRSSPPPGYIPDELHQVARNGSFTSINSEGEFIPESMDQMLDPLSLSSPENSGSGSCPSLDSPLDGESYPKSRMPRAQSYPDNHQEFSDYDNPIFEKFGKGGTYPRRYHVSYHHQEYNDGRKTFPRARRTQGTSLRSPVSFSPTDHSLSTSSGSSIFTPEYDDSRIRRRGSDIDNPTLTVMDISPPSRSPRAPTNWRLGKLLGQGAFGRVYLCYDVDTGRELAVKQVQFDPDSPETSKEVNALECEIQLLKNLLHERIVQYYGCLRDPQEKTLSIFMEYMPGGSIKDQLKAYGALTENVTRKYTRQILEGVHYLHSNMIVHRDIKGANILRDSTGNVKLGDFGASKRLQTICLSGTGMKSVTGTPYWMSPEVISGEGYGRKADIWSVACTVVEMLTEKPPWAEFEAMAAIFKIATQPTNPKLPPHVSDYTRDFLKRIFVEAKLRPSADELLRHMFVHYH
Chain of Serine/threonine-protein kinase VRK2 (Homo sapiens) (Q86Y07 whole entry): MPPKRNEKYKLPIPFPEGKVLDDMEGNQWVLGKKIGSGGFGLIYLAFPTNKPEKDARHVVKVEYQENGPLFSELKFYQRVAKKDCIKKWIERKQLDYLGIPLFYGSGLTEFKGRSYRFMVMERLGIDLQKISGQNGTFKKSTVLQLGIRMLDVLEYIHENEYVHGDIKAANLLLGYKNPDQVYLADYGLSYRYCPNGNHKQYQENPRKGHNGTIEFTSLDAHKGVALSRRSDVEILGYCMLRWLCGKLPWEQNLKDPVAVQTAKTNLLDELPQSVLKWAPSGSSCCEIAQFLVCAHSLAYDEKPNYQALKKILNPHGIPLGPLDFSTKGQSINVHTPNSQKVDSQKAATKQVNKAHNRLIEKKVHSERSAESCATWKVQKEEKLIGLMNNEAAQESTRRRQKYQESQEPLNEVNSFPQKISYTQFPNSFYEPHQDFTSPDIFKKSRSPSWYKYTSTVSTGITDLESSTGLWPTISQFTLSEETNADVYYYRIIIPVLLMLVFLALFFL
Chain of Calcium/calmodulin-dependent protein kinase type II subunit delta (Homo sapiens) (Q13557 whole entry): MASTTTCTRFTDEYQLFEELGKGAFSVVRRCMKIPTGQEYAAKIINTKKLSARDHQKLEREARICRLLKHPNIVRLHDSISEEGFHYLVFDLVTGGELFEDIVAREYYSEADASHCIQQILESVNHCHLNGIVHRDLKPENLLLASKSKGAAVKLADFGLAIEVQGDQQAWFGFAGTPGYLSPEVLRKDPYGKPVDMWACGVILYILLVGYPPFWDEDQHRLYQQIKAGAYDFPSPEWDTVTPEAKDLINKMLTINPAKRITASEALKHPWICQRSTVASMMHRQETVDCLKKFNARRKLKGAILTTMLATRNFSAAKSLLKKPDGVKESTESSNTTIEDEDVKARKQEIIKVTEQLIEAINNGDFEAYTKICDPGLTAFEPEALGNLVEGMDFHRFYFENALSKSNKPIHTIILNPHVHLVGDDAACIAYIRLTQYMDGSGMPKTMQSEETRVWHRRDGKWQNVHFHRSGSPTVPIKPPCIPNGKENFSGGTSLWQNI

CCOC(=O)c1cc2cc(-c3cc(C(=O)NCc4ccc(C(=O)O)cc4)nn3C)ccc2[nH]1 [BI 4394]
inactive: residual activity [1] 86% | residual activity [2] 100% | residual activity [3] 100% | residual activity [4] 100% | residual activity [5] 100% | residual activity [6] 97% | residual activity [7] 100% | residual activity [8] 95% | residual activity [9] 82% | residual activity [10] 100% | inhibition [11] 19.1% | residual activity [12] 95% | residual activity [13] 100% | residual activity [14] 100% | residual activity [15] 100% | residual activity [16] 100% | residual activity [17] 91% | residual activity [18] 95% | residual activity [19] 100% | residual activity [20] 88% | residual activity [21] 90% | residual activity [22] 96% | residual activity [23] 67% | residual activity [24] 89% | residual activity [25] 98% | residual activity [26] 99% | residual activity [27] 100% | residual activity [28] 100% | residual activity [29] 100% | residual activity [30] 90% | residual activity [31] 62% | inhibition [32] -6.49% | residual activity [33] 92% | residual activity [34] 70% | residual activity [35] 96%

Cn1nc(C(=O)NCc2ccc(C(=O)O)cc2)cc1-c1ccc2[nH]ccc2c1 [BI 4395]
inactive: residual activity [1] 96% | residual activity [2] 93% | residual activity [3] 75% | residual activity [4] 100% | residual activity [5] 71% | residual activity [6] 95% | residual activity [7] 95% | residual activity [8] 76% | residual activity [9] 65% | residual activity [10] 88% | inhibition [11] 23.6% | residual activity [12] 92% | residual activity [13] 87% | residual activity [14] 91% | residual activity [15] 76% | residual activity [16] 94% | residual activity [17] 83% | residual activity [18] 72% | residual activity [19] 74% | residual activity [20] 91% | residual activity [21] 82% | residual activity [22] 100% | residual activity [23] 100% | residual activity [24] 97% | residual activity [25] 91% | residual activity [26] 100% | residual activity [27] 91% | residual activity [28] 92% | residual activity [29] 76% | residual activity [30] 100% | residual activity [31] 100% | inhibition [32] 0.05% | residual activity [33] 81% | residual activity [34] 94% | residual activity [35] 60%

Reference: ChEMBL document CHEMBL4507281, “Data for DCP probe BI-4394” (2021)
